# Results reported in PMC3750255, “Inhibition of Mycoplasma pneumoniae growth by FDA-approved anticancer and antiviral nucleoside and nucleobase analogs” (BMC Microbiology, 2013).
# Where “and” joins values, the source holds several entries; their conditions need not be identical. Equal entries are not always repeated. Where two headings read alike, the source gives them in different places.
# How the values were obtained:
# [1] = tested on: M. pneumoniae wild type (laboratory strain M129); experiment: Mpn growth inhibition in 96-well plates (growth index A450/A560), wild type strain; format: cell-based, Mycoplasma pneumoniae; settings: for MIC: Mycoplasmoides pneumoniae, read-out: Wild type MIC; for MIC (Mpn growth): 90% growth inhibition
# Procedure: (§1) A series dilution of each compound in Mycoplasma growth medium was added to Mpn cultures in 96-well plates. The plates were sealed and incubated at 37°C. Mpn growth was monitored by using growth index value e.g. the ratio of absorbance at 450 nm and 560 nm of the culture medium. Thirty nucleoside and nucleobase analogs and a nucleoside transporter inhibitor were included, and two Mpn strains, wild type and a thyA mutant (lacking TS activity), were used.
# (§2) Nucleoside and nucleobase analogs were dissolved in dimethyl sulfoxide (DMSO) as stock solutions and diluted with Mpn culture medium to the desired concentration immediately prior to use.
# (§3) Mpn laboratory strain M129 wild type and a thyA mutant strain [31] were used in this study. Mpn was cultured at 37°C in a CO2 incubator using 75 cm^2 tissue culture flasks containing 50 ml Hayflick’s medium, and harvested at day 4 when the medium color change was observed. The cells were harvested and the pellet was resuspended in 6 ml fresh medium and the cfu/ml was determined by serial dilution (10-fold) and plating on broth agar plate. Colonies was counted and cfu/ml was calculated.
# (§4) Inhibition studies were performed in 96-well plates containing 200 μl Mpn culture (approximately 10^6 cfu ml^-1) in Hayflick’s medium and 200 μl each compound in series dilutions (2-fold) with the growth medium, with three to four replicas. The plates were sealed with clear adhesive sheets and incubated at 37°C incubator. Absorbance ratio at 450 nm and 560 nm was used as Mpn growth index, which was measured daily, and by visual detection for at least 8 days, as previously described. […] The MICs (minimal inhibitory concentration required to inhibit Mpn growth to 90%) were determined as the lowest concentration at which the growth index was ≈ 10% of the control values (at the time when the control culture medium color turned yellow), essentially as described.
# [2] = tested on: M. pneumoniae thyA mutant (lacking TS activity); experiment: microbe, parasite or virus in culture; format: cell-based, Mycoplasma pneumoniae; settings: for MIC: Mycoplasmoides pneumoniae, read-out: thyA mutant MIC
# Procedure: as §1, §2, §3, §4
# Mpn HPRT = target: T1, Mpn HPRT (Mycoplasmoides pneumoniae, UniProt P75119); experiment: biochemical
# T1 sequence (P75119 1-175): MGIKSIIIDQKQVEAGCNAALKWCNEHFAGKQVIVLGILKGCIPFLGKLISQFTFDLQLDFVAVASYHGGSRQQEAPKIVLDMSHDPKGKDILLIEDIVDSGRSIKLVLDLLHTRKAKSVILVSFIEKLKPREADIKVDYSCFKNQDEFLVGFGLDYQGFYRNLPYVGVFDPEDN
# Procedure: (§5) The reaction was initiated by addition of the enzyme, and at 0, 5, 10, and 15 min intervals, 10 μl reaction mixture was withdrawn and spotted onto the DE81 filter paper and dried. The unreacted substrate was washed and the products were eluted and counted in a liquid scintillation counter. With [^3H]-Gua as substrate the reaction (in a total of 25 μl) was initiated by addition of the enzyme (10 μl), incubated at 37°C for 2 min, stopped by addition of 1 M HCl (10 μl), and placed immediately on ice. After neutralization, 15 μl of the mixture was spotted onto the DE81-filter paper. The filters were then washed, and the products were eluted and counted by liquid scintillation.
# human HPRT = target: T2, human HPRT (Homo sapiens, UniProt P00492); experiment: HPRT inhibition, DE-81 filter paper assay; format: biochemical
# T2 construct: made in house
# T2 sequence (P00492 1-218): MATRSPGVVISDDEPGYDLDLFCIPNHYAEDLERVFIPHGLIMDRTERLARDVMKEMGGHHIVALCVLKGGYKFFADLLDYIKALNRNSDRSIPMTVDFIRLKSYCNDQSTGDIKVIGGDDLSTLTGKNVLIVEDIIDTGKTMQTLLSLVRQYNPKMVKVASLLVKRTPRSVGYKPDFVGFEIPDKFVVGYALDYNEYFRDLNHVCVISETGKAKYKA
# Procedure: as §5
# Mpn wild type cells = experiment: Uptake and metabolism of tritium labelled natural nucleoside and nucleobases in the presence of analogs; format: cell-based, Mycoplasma pneumoniae; settings: 10 μM analog, 70 hours; for [3H]-Ade Total uptake / [3H]-Gua Total uptake / [3H]-Hx Total uptake / [3H]-Ura Total uptake / [3H]-dT Total uptake: 37°C, radioactivity in cells / total added; for [3H]-Ade Incorporation / [3H]-Gua Incorporation / [3H]-Hx Incorporation / [3H]-Ura Incorporation / [3H]-dT Incorporation: acid insoluble fraction / total in cells
# Procedure: The cells were harvested and analyzed essentially as described. Analogs used were dipyridamole, 6-thioguanine (6-TG), trifluorothymidine (TFT), gemcitabine (dFdC) and 5-fluorodeoxyuridine (5FdU). Total uptake is the percent of radioactivity recovered in the cells divided by total radioactivity added to the growth medium. Percent of acid insoluble (radioactivity found in DNA and RNA) was also calculated. These experiments were done more than three times and data are given as mean ± SD.
# [3] = substrate guanine, 10 μM [3H]-guanine
# [4] = substrate hypoxanthine, 10 μM [3H]-hypoxanthine
# [5] = 10 μM [3H]-guanine, read-out: IC50 Human HPRT, substrate guanine
# [6] = IC50 Human HPRT, substrate hypoxanthine, 10 μM [3H]-hypoxanthine
# [7] = minimal concentration producing 90% inhibition, wild type Mpn
structure (smiles),measurement,setting,value
Nc1ncn([C@@H]2O[C@H](CO)[C@@H](O)[C@H]2O)c(=O)n1 [5-azacytidine],MIC,[1],> 500 µg/mL
same,MIC,[2],> 500 µg/mL
Nc1nc(=O)[nH]cc1F [5-fluorocytosine],MIC,[1],31.2 µg/mL
same,MIC,[2],31.2 µg/mL
O=c1[nH]cc(F)c(=O)[nH]1 [5-fluorouracil],MIC,[1],31.2 µg/mL
same,MIC,[2],31.2 µg/mL
O=c1[nH]c(=O)n([C@H]2C[C@H](O)[C@@H](CO)O2)cc1I [5-iododeoxyuridine],MIC,[1],15.6 µg/mL
same,Inhibition of wild type Mpn growth (in words),[1]; wild type Mpn,only inhibited the wild type Mpn growth
same,MIC,[2],> 500 µg/mL
"Sc1ncnc2nc[nH]c12 [6-mercaptopurine (6-MP), 6-mercaptopurine]",MIC,[1],> 500 µg/mL
same,Inhibition of Mpn growth (in words),[1]; strain not specified,did not inhibit Mpn growth
same,MIC,[2],> 500 µg/mL
same,IC50,Mpn HPRT; [3],282 ± 21 µM
same,IC50,Mpn HPRT; [4],89.7 ± 14.5 µM
same,IC50,human HPRT; [5],25.1 ± 3 µM
same,IC50,human HPRT; [6],22.5 ± 3.6 µM
"Nc1nc2nc[nH]c2c(=S)[nH]1 [6-thioguanine (6-TG), 6-thioguanine]",MIC,[1],0.2 µg/mL
same,MIC (Mpn growth),[1]; strain not specified,0.20 µg/mL
same,[3H]-Ade Total uptake,Mpn wild type cells,0.66±0.1%
same,[3H]-Gua Total uptake,Mpn wild type cells,0.080±0.002%
same,[3H]-Hx Total uptake,Mpn wild type cells,0.005 ± 0.0004%
same,[3H]-Ura Total uptake,Mpn wild type cells,0.21±0.003%
same,[3H]-dT Total uptake,Mpn wild type cells,7.9±0.6%
same,[3H]-Ade Incorporation,Mpn wild type cells,46±3%
same,[3H]-Gua Incorporation,Mpn wild type cells,67±3%
same,[3H]-Hx Incorporation,Mpn wild type cells,43±6%
same,[3H]-Ura Incorporation,Mpn wild type cells,39±8%
same,[3H]-dT Incorporation,Mpn wild type cells,97.4±0.7%
same,MIC,[2],0.2 µg/mL
same,IC50,Mpn HPRT; [3],3.2 µM and 3.16 µM
same,IC50,Mpn HPRT; [4],3.5 ± 0.5 µM
same,IC50,human HPRT; [5],39.8 ± 4 µM
same,IC50,human HPRT; [6],20.5 ± 6.5 µM
"Cn1c(=O)c2c(ncn2CC(O)CO)n(C)c1=O (stereo not drawn) [7-(2,3-dihydroxypropyl)theophylline]",MIC,[1],> 500 µg/mL
same,MIC,[2],> 500 µg/mL
Nc1nc2c(ncn2COCCO)c(=O)[nH]1 [Acyclovir],MIC,[1],15.6 µg/mL
same,MIC,[2],15.6 µg/mL
CC(C)(C)C(=O)OCOP(=O)(COCCn1cnc2c(N)ncnc21)OCOC(=O)C(C)(C)C [Adefovir depivoxil],Wild type MIC,[1]; [7],> 500 µg/mL
same,thyA mutant MIC,"[2]; minimal concentration producing 90% inhibition, thyA mutant Mpn",> 500 µg/mL
Oc1ncnc2[nH]ncc12 [Allopurinol],MIC,[1]; [7],> 500 µg/mL
same,MIC,[2],> 500 µg/mL
Nc1ncnc2c1ncn2[C@@H]1O[C@H](CO)[C@@H](O)[C@@H]1O [Arabinosyl adenine],MIC,[1]; [7],> 500 µg/mL
same,MIC,[2],> 500 µg/mL
Cn1cnc([N+](=O)[O-])c1Sc1ncnc2nc[nH]c12 [Azathioprine],MIC,[1],> 500 µg/mL
same,MIC,[2],> 500 µg/mL
Cn1c(=O)c2c(ncn2C)n(C)c1=O [Caffeine],MIC,[1]; [7],> 500 µg/mL
same,MIC,[2],> 500 µg/mL
same,IC50,human HPRT; [6],2510 ± 156 µM
Nc1ccn(C[C@@H](CO)OCP(=O)(O)O)c(=O)n1 [Cidofovir],MIC,[1],31.2 µg/mL
same,MIC,[2],31.2 µg/mL
OCCN(CCO)c1nc(N2CCCCC2)c2nc(N(CCO)CCO)nc(N3CCCCC3)c2n1 [Dipyridamole],MIC,[1],1.9 µg/mL
same,MIC (Mpn growth),[1]; strain not specified,approximately 2 μg ml^-1
same,[3H]-Ade Total uptake,Mpn wild type cells,0.67±0.1%
same,[3H]-Gua Total uptake,Mpn wild type cells,0.09±0.002%
same,[3H]-Hx Total uptake,Mpn wild type cells,0.008± 0.001%
same,[3H]-Ura Total uptake,Mpn wild type cells,0.20±0.003%
same,[3H]-dT Total uptake,Mpn wild type cells,7.2±1.1%
same,[3H]-Ade Incorporation,Mpn wild type cells,47±1%
same,[3H]-Gua Incorporation,Mpn wild type cells,56±6%
same,[3H]-Hx Incorporation,Mpn wild type cells,44±3%
same,[3H]-Ura Incorporation,Mpn wild type cells,38±6%
same,[3H]-dT Incorporation,Mpn wild type cells,97.0±1.3%
same,MIC,[2],1.9 µg/mL
